Experimental data published in paper PMC11720353, “Clove Essential Oil as a Source of Antitumoral Compounds Capable of Crossing the Blood–Brain Barrier: A Focus on the Effects of β-Caryophyllene and Eugenol in a Glioblastoma Cell Line” (International Journal of Molecular Sciences, 2024).
Like-named read-outs stand apart in the source and are kept apart here.

Columns and labels:
[1] = cited from earlier work
U87 cells [2] = test: Quantitative real-time PCR of mRNA levels; format: cell-based, human; conditions: 24 h
Procedure: (§1) An analysis of the genes involved in angiogenesis, tumor progression and proliferation were performed. In particular, we analyzed the genes involved in the cell cycle and in three different apoptotic pathways: B-cell lymphoma-2 (BCL2), Bcl-2-like protein 1 (BCL2L1), Bcl-2 Associated X-protein (BAX), BCL2 Antagonist/Killer 1 (BAK-1) and Caspase 9 (CASP9) as the key genes of the intrinsic mitochondrial pathway; and Phosphatase and tensin homolog (PTEN), Tumor protein p53 (TP53), Murine double minute 2 (MDM2), Cyclin-dependent kinase 4 (CDK4) and Vascular endothelial growth factor A (VEGFA) mRNA levels were assessed by quantitative real-time PCR (qRT-PCR). HMC3 and U87 cells were seeded with a density of 1 × 10^6 cells per well and incubated for 24 h at 37 °C and 5% CO2. Thereafter, the cells were treated either with EU (200 μM) or BCA (125 μM) alone and in combination (EU 200 μM + BCA 125 μM). Total RNA was extracted using the TripleXtractor solution (GRISP, Lisbon, Portugal) according to the manufacturer's protocol. RNA was converted into cDNA through the […] Synthesis Supermix (GRISP, Lisbon, Portugal). Each optimized reaction was performed using […] SYBR Green Mastermix 2X with […], Lisbon, Portugal) and subjected to the amplification protocol described by the manufacturer, using a melting temperature of 60 °C. The relative gene expression was determined by the 2^-ΔΔCt method and normalized on Glyceraldehyde-3-Phosphate Dehydrogenase (GAPDH), which was the endogenous reference and relative to the untreated cells (control condition).

HMC3 cells [3] = test: Quantitative real-time PCR of mRNA levels; format: cell-based, human; conditions: 24 h
Procedure: as §1

HMC3 cells [4] = test: Cell death assay (Annexin V/PI, flow cytometry); format: cell-based, human; conditions: EU 200 µM, BCA 125 µM, alone or in combination, 24 h
Procedure: (§4) HMC3 and U87 cells were seeded in duplicate into 12-well plates (10 × 10^4 cells/well). After 24 h of incubation at 37 °C and 5% CO2, the medium was replaced, and the cells were treated either with EU (200 µM) or BCA (125 µM), alone and in combination (EU 200 µM + BCA 125 µM). Following the 24 h treatment, the cells were co-stained with AV-APC and PI according to the manufacturer’s protocol (Biolegend, San Diego, CA, USA). Briefly, the cells were resuspended in binding buffer (100 µL) and incubated with AV-APC solution (5 µL) and PI solution (2 µL) for 15 min at room temperature. Then, the cells were diluted in a binding buffer (400 µL). A six-parameter, four-color FACSCalibur flow cytometer (Becton Dickinson, San Jose, CA, USA) was used, and at least 10,000 events were collected by acquisition using CellQuest software (Becton Dickinson, San Jose, CA, USA). The results were analyzed with the Paint-a-Gate software and expressed in percentage (%).

U87 cells [5] = test: Cell death assay (Annexin V/PI, flow cytometry); format: cell-based, human; conditions: EU 200 µM, BCA 125 µM, alone or in combination, 24 h
Procedure: as §4

U87 cells [6] = test: Inflammatory cytokines in conditioned media (Luminex/BioPlex); format: cell-based, human; conditions: EU 200 µM, BCA 125 µM, alone or in combination, 24 h
Procedure: (§2) In order to determine the impact of BCA and/or EU on inflammatory cytokines levels, cytokine expression analyses (L-6, IL-4, IL-8 and TNF-α) were performed using a customized detection panel purchased from Bio-techne (Minneapolis, MN, USA). The cells were seeded, in triplicate, into 24-well culture plates (8 × 10^4 cells/well). After 24 h, the medium was replaced and the cells were treated either with the vehicle (ethanol) or with different concentrations of EO single compounds alone (EU: 2 µM, 20 µM, 200 µM; and BCA: 1.25 µM, 12.5 µM, 125 µM) or in combination (EU 2 µM + BCA 1.25 µM; EU 20 µM + BCA 12.5 µM; and EU 200 µM + BCA 125 µM). The final concentration of ethanol in the cell medium was kept lower than 0.1%. The ethanol 0.1%-treated cells were considered the control condition. After the 24 h treatment, supernatants were collected and centrifuged at 4,000× g for 10 min, and the samples were analyzed with the BioPlex 200 instrument (BioRad®, Hercules, CA, USA) following the manufacturer’s protocol.

HMC3 cells [7] = test: as above; format: cell-based, human; conditions: EU 200 µM, BCA 125 µM, alone or in combination, 24 h
Procedure: as §2

U87 cells [8] = test: Cell cycle analysis (PI/RNase, flow cytometry); format: cell-based, human; conditions: EU 200 µM, 24 h
Procedure: (§3) Analysis of the effect of BCA and/or EU on the cell cycle was assessed with flow cytometry using propidium iodide (PI)/RNase solution, according to the manufacturer’s protocol (Immunostep, Salamanca, Spain), as previously described. HMC3 and U87 cells (30 × 10^4 cells/well) were seeded in triplicate into 6-well plates and incubated for 24 h at 37 °C and 5% CO2. Thereafter, the cells were treated either with EU (200 µM) or BCA (125 µM) alone or in combination (EU 200 µM + BCA 125 µM). After 24 h, the cells were detached and fixed in 70% ethanol for 60 min at 4 °C, washed twice with PBS, and then stained with 500 µL of PI/RNase solution. The results were acquired using CellQuest software and expressed as the calculated percentage of the cell population in each cell cycle phase (G0/G1, S and G2/M) according to the PI intensity.

HMC3 cells [9] = test: Cell cycle analysis (PI/RNase, flow cytometry); format: cell-based, human; conditions: EU 200 µM, BCA 125 µM, alone or in combination, 24 h
Procedure: as §3

U87 cells [10] = test: Metabolic activity (Alamar blue) assay and HSA synergy analysis; format: cell-based, human; conditions: EU 2.5, 25, 200 µM or BCA 1.25, 12.5, 125 µM alone, 24-72 h
Procedure: To evaluate the cytotoxic/antiproliferative potential of BCA and/or EU, the U87 and HMC3 cells were seeded, in triplicate, into 48-well culture plates (4 × 10^4 cells/well). After 24 h, the medium was replaced, and the cells were treated either with the vehicle (ethanol) or with different concentrations of EO single molecules, diluted in ethanol alone ([…]; BCA: 1.25 µM, µM, 125 µM) or in combination (EU 2 µM and BCA 1.25 µM; EU 20 µM and BCA 12.5 µM; and EU 200 µM and BCA 125 µM) in order to evaluate the possible synergistic effects. The final concentration of ethanol in the cell medium was kept lower than 0.1%. Non-treated cells were considered the control condition. Metabolic activity was evaluated using a modified Alamar blue® assay, as previously described. […] After 2 h of incubation at 5% CO2 and 37 °C, the absorbance was read at 570 and 600 nm in a BioTeck (BioTek Instruments, Inc., Winooski, VT, USA). The absorbance results were obtained using the Gen5 program. The metabolic activity was then calculated by the following equation: Metabolicactivity %=A570−A600 oftreated cells/A570−A600 ofcontrol cells×100 All data were analyzed using the software GraphPad Prism v.9.00 (GraphPad Software, San Diego, CA, USA). All in vitro experiments were performed in triplicate, and the acquired results were expressed as means ± SEM. […]

U87 cells [11] = test: Clonogenic cell survival assay; format: cell-based, human; conditions: EU 200 µM, BCA 125 µM, alone or in combination, 14 days
Procedure: An evaluation of the antiproliferative effect via clonogenic assay on the tumoral U87 cells was performed using an adapted protocol from the previously described procedure. Briefly, U87 cells (0.8 × 10^3 cells/well) were seeded into 6-well plates and incubated for 24 h. After the incubation, based on the results obtained from the cell viability assay and synergistic score, the cells were treated either with EO single compounds diluted in ethanol alone (EU 200 µM and BCA 125 µM) or in combination for 14 days with the media being changed every 2/3 days. The cells without treatment were considered the control condition. Following the incubation, the cells were washed with PBS, fixed with paraformaldehyde (PFA) and stained with 0.1% crystal violet solution. The number of colonies was counted by microscopy, and the surviving fraction (SF) was calculated as the mean colonies/number of cells seeded.

[12] = EU 200 µM, BCA 125 µM, alone or in combination

O=C/C=C/c1ccccc1 [cinnamaldehyde]
ability to permeate the CNS ([1]; rat, not told, po): inability to permeate the CNS

C=C(C)[C@H]1CC=C(C)CC1 [limonene]
ability to permeate the CNS ([1]; after oral administration): inability to permeate the CNS

C=CCc1ccc(O)c(OC)c1 [EU, 4-allyl-2-methoxyphenol]
PTEN mRNA expression, change vs control (U87 cells [2]; EU 200 µM or BCA 125 µM): +86.4% | BAK1 mRNA expression, change vs control (U87 cells [2]; [12]): +32.3% | BAX mRNA expression, change vs control (U87 cells [2]; [12]): +50.3% | BCL2L1 mRNA expression, change vs control (U87 cells [2]; [12]): −42.2% | BCL2 mRNA expression, change vs control (U87 cells [2]; [12]): −45.6% | CASP9 mRNA expression, change vs control (U87 cells [2]; [12]): no effect | MDM2 mRNA expression, change vs control (U87 cells [2]; [12]): no effect | TP53 mRNA expression, change vs control (U87 cells [2]; [12]): +143.6% | VEGFA mRNA expression, change vs control (U87 cells [2]; [12]): no effect | CDK4 mRNA levels, change vs control (U87 cells [2]; EU 200 µM, BCA 125 µM, alone or in combination, normalized to GAPDH): −49.1% | PTEN mRNA expression, change vs control (HMC3 cells [3]; EU 200 µM or BCA 125 µM): +42.2% | BAK1 mRNA expression, change vs control (HMC3 cells [3]; [12]): no effect | BAX mRNA expression, change vs control (HMC3 cells [3]; [12]): −29.7% | BCL2L1 mRNA expression, change vs control (HMC3 cells [3]; [12]): −34.1% | BCL2 mRNA expression, change vs control (HMC3 cells [3]; [12]): −61.2% | CASP9 mRNA expression, change vs control (HMC3 cells [3]; [12]): no effect | CDK4 mRNA levels, change vs control (HMC3 cells [3]; [12]): no effects | MDM2 mRNA expression, change vs control (HMC3 cells [3]; [12]): −61.2% | TP53 mRNA expression, change vs control (HMC3 cells [3]; [12]): no effect | VEGFA mRNA expression, change vs control (HMC3 cells [3]; [12]): −31.5% | cell viability (HMC3 cells [4]): did not affect | live (viable) cells, change with respect to control (U87 cells [5]): did not affect | IL-4 levels, change vs control (U87 cells [6]): −31% | IL-6 secretion, change vs control (U87 cells [6]): None of the treatments modulated | IL-8 secretion, change vs control (U87 cells [6]): unaffected | IL-4 levels, change vs control (HMC3 cells [7]): −26% | effect on cell cycle (U87 cells [8]): no significant effect | effect on cell cycle (HMC3 cells [9]): no effects | reduction in metabolic activity, single compounds (U87 cells [10]): No reduction | ability to cross the blood–brain barrier ([1]; rat, in vivo): high aptitude to cross the blood–brain barrier | decrease of clonal growth / colony formation with respect to control (U87 cells [11]): −59.5%
